Data from patent publication US20250161216A1, “CATIONIC LIPID ANALOGUES, COMPOSITIONS AND USES THEREOF” (GUANGZHOU LIDE BIOMEDICINE TECHNOLOGY CO., LTD., priority 2022, published 2025).

Experiments:
C57BL/6 mice [1] = test: In vivo expression level of Luciferase-mRNA delivered by intravenous injection (bioluminescence imaging); details: mRNA-loaded nanoparticles, intravenous (tail vein), 5 μg Luciferase-mRNA, 6 hours; for Fluorescence intensity of liver: compounds of Example 1
How it was run: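 Lipid nanoparticles carrying 5 μg Luciferase-mRNA given by tail-vein injection to 6-8-week-old C57BL/6 mice. At 6 h, 3 mg D-luciferin i.p. in PBS; bioluminescence imaged 10 min later as the expression read-out.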

C57BL/6 mice [2] = test: In vivo expression level of Luciferase-mRNA delivered by intramuscular injection (bioluminescence imaging); details: mRNA-loaded nanoparticles, intramuscular (leg muscle), 5 μg Luciferase-mRNA, 6 hours
Experimental: Luciferase-mRNA was used as an mRNA model; and the cationic lipid analogues of Examples 1-5 were used to prepare drug-loaded nanoparticles according to the method of Example 6.
100 μL of nanoparticles containing 5 μg Luciferase-mRNA or the drug-loaded nanoparticles prepared above were injected into the leg muscles of 6-8 week-old C57BL/6 mice, and 200 μL of 1×PBS solution containing 3 mg D-Luciferin potassium salt was intraperitoneally injected into the mice 6 hours later. After waiting for 10 minutes, an in vivo expression level of the mRNA was evaluated by bioluminescence imaging.

SMILES	Fluorescence intensity of spleen (C57BL/6 mice [1]; compounds of Example 3)	Local fluorescence intensity (C57BL/6 mice [2]; compounds of Example 3)	also measured
CCCCC/C=C\C/C=C\CCCCCCCC(=O)N(CCC)C(C(=O)NCCN(C)CCNC(=O)C(C(C)C)N(CCC)C(=O)CCCCCCC/C=C\C/C=C\CCCCC)C(C)C (stereo not shown) [A1I4R21C18-2]	–	–	Fluorescence intensity of spleen (C57BL/6 mice [1]; compounds of Example 2): 6.62E+05; Local fluorescence intensity (C57BL/6 mice [2]; compounds of Example 2): 3.17E+05
CCCCCCCC/C=C\CCCCCCCC(=O)N(CCO)C(C(=O)NCCN(C)CCNC(=O)C(C(C)C)N(CCO)C(=O)CCCCCCC/C=C\CCCCCCCC)C(C)C (stereo not shown) [A1I4R22C18-1]	–	–	Fluorescence intensity of spleen (C57BL/6 mice [1]; compounds of Example 2): 3.18E+05; Local fluorescence intensity (C57BL/6 mice [2]; compounds of Example 2): 2.86E+04
CCCCCCCC/C=C\CCCCCCCC(=O)N(CCOC)C(C(=O)NCCN(C)CCNC(=O)C(C(C)C)N(CCOC)C(=O)CCCCCCC/C=C\CCCCCCCC)C(C)C (stereo not shown) [A1I4R23C18-1]	–	–	Fluorescence intensity of spleen (C57BL/6 mice [1]; compounds of Example 2): 3.11E+05; Local fluorescence intensity (C57BL/6 mice [2]; compounds of Example 2): 1.77E+05
CCCCC/C=C\C/C=C\CCCCCCCC(=O)N(CCOC)C(C(=O)NCCN(C)CCNC(=O)C(C(C)C)N(CCOC)C(=O)CCCCCCC/C=C\C/C=C\CCCCC)C(C)C (stereo not shown) [A1I4R23C18-2]	–	–	Fluorescence intensity of spleen (C57BL/6 mice [1]; compounds of Example 2): 9.64E+05; Local fluorescence intensity (C57BL/6 mice [2]; compounds of Example 2): 8.72E+05
CCCCCCCCCCCCCCCCCC(=O)N(CCOC)C(C(=O)NCCN(C)CCNC(=O)C(C(C)C)N(CCOC)C(=O)CCCCCCCCCCCCCCCCC)C(C)C (stereo not shown) [A1I4R23C18]	–	–	Fluorescence intensity of spleen (C57BL/6 mice [1]; compounds of Example 2): 1.51E+05; Local fluorescence intensity (C57BL/6 mice [2]; compounds of Example 2): 7.53E+04
CCCCCCCCCCCCCC(=O)N(CCO)C(C(=O)NCCN(CCNC(=O)C(C(C)C)N(CCO)C(=O)CCCCCCCCCCCCC)CCNC(=O)C(C(C)C)N(CCO)C(=O)CCCCCCCCCCCCC)C(C)C (stereo not shown) [A1I5R22C14]	1.20E+06	1.08E+05	–
CCCCCCCCSSCCC(=O)N(CCO)C(C(=O)NCCN(CCNC(=O)C(C(C)C)N(CCO)C(=O)CCSSCCCCCCCC)CCNC(=O)C(C(C)C)N(CCO)C(=O)CCSSCCCCCCCC)C(C)C (stereo not shown) [A1I5R22S13]	1.60E+06	5.74E+05	–
CCCCCCCCCCSSCCC(=O)N(C1CCCCCC1)C(C(=O)NCCN(CCNC(=O)C(C(C)C)N(C(=O)CCSSCCCCCCCCCC)C1CCCCCC1)CCNC(=O)C(C(C)C)N(C(=O)CCSSCCCCCCCCCC)C1CCCCCC1)C(C)C (stereo not shown) [A1I5R26S15]	1.30E+05	9.90E+05	–
CCCCCCCCCCSSCCC(=O)N(CCCCCO)C(C(=O)NCCN(CCNC(=O)C(C(C)C)N(CCCCCO)C(=O)CCSSCCCCCCCCCC)CCNC(=O)C(C(C)C)N(CCCCCO)C(=O)CCSSCCCCCCCCCC)C(C)C (stereo not shown) [A1I5R27S15]	7.96E+05	3.57E+05	–
CCCCCCCCCCSSCCC(=O)N(CCCCCCO)C(C(=O)NCCN(CCNC(=O)C(C(C)C)N(CCCCCCO)C(=O)CCSSCCCCCCCCCC)CCNC(=O)C(C(C)C)N(CCCCCCO)C(=O)CCSSCCCCCCCCCC)C(C)C (stereo not shown) [A1I5R28S15]	3.31E+06	6.01E+05	–
CCCCCCCCCCSSCCC(=O)N(C(C(=O)NCCN(CCNC(=O)C(C(C)C)N(C(=O)CCSSCCCCCCCCCC)C(C)(CO)CO)CCNC(=O)C(C(C)C)N(C(=O)CCSSCCCCCCCCCC)C(C)(CO)CO)C(C)C)C(C)(CO)CO (stereo not shown) [A1I5R29S15]	3.13E+05	7.63E+04	–
CCCCCCCCCCSSCCC(=O)N(C(C(=O)NCCN(CCNC(=O)C(C(C)C)N(C(=O)CCSSCCCCCCCCCC)C(CO)(CO)CO)CCNC(=O)C(C(C)C)N(C(=O)CCSSCCCCCCCCCC)C(CO)(CO)CO)C(C)C)C(CO)(CO)CO (stereo not shown) [A1I5R30S15]	6.31E+04	7.77E+04	–
CCCCCCCCCCSSCCC(=O)N(CCCOCC)C(C(=O)NCCN(CCNC(=O)C(C(C)C)N(CCCOCC)C(=O)CCSSCCCCCCCCCC)CCNC(=O)C(C(C)C)N(CCCOCC)C(=O)CCSSCCCCCCCCCC)C(C)C (stereo not shown) [A1I5R31S15]	6.13E+05	2.94E+06	–
CCCCCCCCCCSSCCC(=O)N(CCCOC(C)C)C(C(=O)NCCN(CCNC(=O)C(C(C)C)N(CCCOC(C)C)C(=O)CCSSCCCCCCCCCC)CCNC(=O)C(C(C)C)N(CCCOC(C)C)C(=O)CCSSCCCCCCCCCC)C(C)C (stereo not shown) [A1I5R32S15]	2.48E+05	1.18E+06	–
CCCCCCCCCCSSCCC(=O)N(C(CC)COC)C(C(=O)NCCN(CCNC(=O)C(C(C)C)N(C(=O)CCSSCCCCCCCCCC)C(CC)COC)CCNC(=O)C(C(C)C)N(C(=O)CCSSCCCCCCCCCC)C(CC)COC)C(C)C (stereo not shown) [A1I5R33S15]	2.33E+05	1.52E+06	–
CCCCCCCCCCSSCCC(=O)N(CC(OC)OC)C(C(=O)NCCN(CCNC(=O)C(C(C)C)N(CC(OC)OC)C(=O)CCSSCCCCCCCCCC)CCNC(=O)C(C(C)C)N(CC(OC)OC)C(=O)CCSSCCCCCCCCCC)C(C)C (stereo not shown) [A1I5R34S15]	2.84E+05	1.24E+06	–
CCCCCCCCCCSSCCC(=O)N(CC1CCCO1)C(C(=O)NCCN(CCNC(=O)C(C(C)C)N(CC1CCCO1)C(=O)CCSSCCCCCCCCCC)CCNC(=O)C(C(C)C)N(CC1CCCO1)C(=O)CCSSCCCCCCCCCC)C(C)C (stereo not shown) [A1I5R35S15]	3.21E+05	2.62E+06	–
CCCCCCCCCCSSCCC(=O)N(CCOCCO)C(C(=O)NCCN(CCNC(=O)C(C(C)C)N(CCOCCO)C(=O)CCSSCCCCCCCCCC)CCNC(=O)C(C(C)C)N(CCOCCO)C(=O)CCSSCCCCCCCCCC)C(C)C (stereo not shown) [A1I5R36S15]	3.27E+06	8.27E+04	–
CCCCCCCCCCSSCCC(=O)N(CC(=O)OCC)C(C(=O)NCCN(CCNC(=O)C(C(C)C)N(CC(=O)OCC)C(=O)CCSSCCCCCCCCCC)CCNC(=O)C(C(C)C)N(CC(=O)OCC)C(=O)CCSSCCCCCCCCCC)C(C)C (stereo not shown) [A1I5R37S15]	1.61E+05	1.26E+06	–
CCCCCCCCCCSSCCC(=O)N(CCCC(=O)OC)C(C(=O)NCCN(CCNC(=O)C(C(C)C)N(CCCC(=O)OC)C(=O)CCSSCCCCCCCCCC)CCNC(=O)C(C(C)C)N(CCCC(=O)OC)C(=O)CCSSCCCCCCCCCC)C(C)C (stereo not shown) [A1I5R38S15]	1.14E+05	4.72E+04	–
CCCCCCCCCCSSCCC(=O)N(CCCC(=O)OCC)C(C(=O)NCCN(CCNC(=O)C(C(C)C)N(CCCC(=O)OCC)C(=O)CCSSCCCCCCCCCC)CCNC(=O)C(C(C)C)N(CCCC(=O)OCC)C(=O)CCSSCCCCCCCCCC)C(C)C (stereo not shown) [A1I5R39S15]	3.88E+04	2.15E+04	–
CCCCCCCCCCSSCCC(=O)N(C(C)C(=O)OC)C(C(=O)NCCN(CCNC(=O)C(C(C)C)N(C(=O)CCSSCCCCCCCCCC)C(C)C(=O)OC)CCNC(=O)C(C(C)C)N(C(=O)CCSSCCCCCCCCCC)C(C)C(=O)OC)C(C)C (stereo not shown) [A1I5R40S15]	1.39E+04	3.86E+05	–
CCCCCCCCCCSSCCC(=O)N(CS(=O)(=O)O)C(C(=O)NCCN(CCNC(=O)C(C(C)C)N(CS(=O)(=O)O)C(=O)CCSSCCCCCCCCCC)CCNC(=O)C(C(C)C)N(CS(=O)(=O)O)C(=O)CCSSCCCCCCCCCC)C(C)C (stereo not shown) [A1I5R41S15]	4.22E+05	1.81E+05	–
CCCCCCCCCCCCNC(=O)C(C(C)C)N(CCN(CCN(C(=O)CO)C(C(=O)NCCCCCCCCCCCC)C(C)C)CCN(C(=O)CO)C(C(=O)NCCCCCCCCCCCC)C(C)C)C(=O)CO (stereo not shown) [A1I12R47C21]	–	–	Fluorescence intensity of spleen (C57BL/6 mice [1]; compounds of Example 5): 3.10E+05; Local fluorescence intensity (C57BL/6 mice [2]; compounds of Example 5): 2.22E+05
CCCCC/C=C\C/C=C\CCCCCCCC(=O)N(CCCN(C)C)C(C(=O)NCCCCCCCCCCCCCCCCCC)C(C)C (stereo not shown) [A1I18R2C18-2]	–	–	Fluorescence intensity of liver (C57BL/6 mice [1]): 5.42E+04; Local fluorescence intensity (C57BL/6 mice [2]; compounds of Example 1): 7.88E+04
CCCCCCCCCCCCCCCCCCNC(=O)C(C(C)C)N(CCCN(C)C)C(=O)CCCCCCCCCCCCCCCCC (stereo not shown) [A1I18R2C18]	–	–	Fluorescence intensity of liver (C57BL/6 mice [1]): 2.26E+04; Local fluorescence intensity (C57BL/6 mice [2]; compounds of Example 1): 1.36E+05
CCCCC/C=C\C/C=C\CCCCCCCC(=O)N(CCCN1CCOCC1)C(C(=O)NCCCCCCCCCCCCCCCCCC)C(C)C (stereo not shown) [A1I18R5C18-2]	–	–	Fluorescence intensity of liver (C57BL/6 mice [1]): 3.77E+03; Local fluorescence intensity (C57BL/6 mice [2]; compounds of Example 1): 8.15E+04
CCCCCCCCCCCCCCCCCCNC(=O)C(C(C)C)N(CCCN1CCOCC1)C(=O)CCCCCCCCCCCCCCCCC (stereo not shown) [A1I18R5C18]	–	–	Fluorescence intensity of liver (C57BL/6 mice [1]): 1.16E+03; Local fluorescence intensity (C57BL/6 mice [2]; compounds of Example 1): 5.25E+04
CCCCC/C=C\C/C=C\CCCCCCCC(=O)N(CCN1CCCCC1)C(C(=O)NCCCCCCCCCCCCCCCCCC)C(C)C (stereo not shown) [A1I18R12C18-2]	–	–	Fluorescence intensity of liver (C57BL/6 mice [1]): 1.41E+03; Local fluorescence intensity (C57BL/6 mice [2]; compounds of Example 1): 3.38E+06
